Experimental data: the supplement of paper PMC11208160

assay: recombinant UMI read abundance after kanamycin selection (control-corrected) (log10(CPM+1)); higher = more efficient recombination; extreme values may be limits of the assay; sequences stand for … in AGTGCAGAGAAAATCGGCCAGTTTTCTCTGCCTGCAGTCCGCATGCCGTGGGACCCCTTGGGTTCTAACCTGTTGCCTAGATTTATGCAGCGGACTGCCTTTCTCCCAAAGTGATAAACCGG…AGGTTGGTTTCACT; site = the 11-nt donor
Method in brief: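 Sequencing read counts were converted to CPM, averaged over two replicates and scaled by control-derived factors. Results are given as log10(CPM+1). The reads covered the donor–target junction of recombinant UMIs from a pooled Escherichia coli screen of donor and donor-binding-loop pairs for the IS621 bridge recombinase.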
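Also: IS621 bridge recombinase in Escherichia coli cells against a fixed T5 target plasmid.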

First: CTTCTCACATGGACCGGTTTTCCCGGTAATCCGTATTTGTA (site CTTCTCTCTTA)
Second: ACTAGTGCATGGACCGGTTTTCCCGGTAATCCGTATTTGCT (site ACTAGTGCTAA)
The “recombinant UMI read abundance (log10)” value of the first is lower: 0 for the first, 0.335 for the second.

First: GAAAATGCATGGACCGGTTTTCCCGGTAATCCGTATTTGAG (site GAAAATGCTCT)
Second: ATCCATACATGGACCGGTTTTCCCGGTAATCCGTATTTGAC (site ATCGATACTGT)
The “recombinant UMI read abundance (log10)” value of the first is higher: 2.25 for the first, 0 for the second.

First: CGGTGCGCATGGACCGGTTTTCCCGGTAATCCGTATTTGCC (site CGGTGCGCTGG)
Second: CCCTAGCCATGGACCGGTTTTCCCGGTAATCCGTATTTGCC (site CCCTAGTCTGG)
The “recombinant UMI read abundance (log10)” value of the first is higher: 1.48 for the first, 1.15 for the second.

Compared with “TCCTACGCATGGACCGGTTTTCCCGGTAATCCGTATTTGAA (site TCCTACGCTTT)”, “CAGAGAGCATGGACCGGTTTTCCCGGTAATCCGTATTTGTA (site CAGAGAGCTTA)” is higher in “recombinant UMI read abundance (log10)” value: 0.0256 for the first, 2.94 for the second.

First: ACAGTGCCATGGACCGGTTTTCCCGGTAATCCGTATTTGAG (site ACAGTGCCTCT)
Second: CCCGTATCATGGACCGGTTTTCCCGGTAATCCGTATTTGTC (site CCCCTATCTGA)
The “recombinant UMI read abundance (log10)” value of the first is higher: 0.285 for the first, 0.0235 for the second.

“TCCAACGCATGGACCGGTTTTCCCGGTAATCCGTATTTGAT (site TCCAACGCTAT)” and “GCGTGCCCATGGACCGGTTTTCCCGGTAATCCGTATTTGAT (site GCTTGCCCTAT)” are within 0.2 log units of each other in “recombinant UMI read abundance (log10)” value: 0 for the first, 0.0133 for the second.

Going from “CTTCTCTCATGGACCGGTTTTCCCGGTAATCCGTATTTGCA (site CTTCTCTCTTG)” to “CCAGTCACATGGACCGGTTTTCCCGGTAATCCGTATTTGGA (site CCAGTCACTTC)”, the “recombinant UMI read abundance (log10)” value falls from 2.46 to 0.00572.

Compared with “CGTGGCACATGGACCGGTTTTCCCGGTAATCCGTATTTGTT (site CGTGGAACTAA)”, “ATCTATACATGGACCGGTTTTCCCGGTAATCCGTATTTGGC (site ATCTATACTGA)” is higher in “recombinant UMI read abundance (log10)” value: 0.00865 for the first, 1.09 for the second.

Going from “ACACGAACATGGACCGGTTTTCCCGGTAATCCGTATTTGTC (site ACACGAACTAA)” to “ACACGAACATGGACCGGTTTTCCCGGTAATCCGTATTTGTC (site ACAGGAACTGA)”, the “recombinant UMI read abundance (log10)” value falls from 1.83 to 0.

Going from “TACTAGACATGGACCGGTTTTCCCGGTAATCCGTATTTGCT (site TACTGGACTAG)” to “AGGACTACATGGACCGGTTTTCCCGGTAATCCGTATTTGAC (site AGTACTACTGT)”, the “recombinant UMI read abundance (log10)” value rises from 0 to 0.941.

“CCCTAGACATGGACCGGTTTTCCCGGTAATCCGTATTTGGG (site TCCTAGACTCC)” and “CCTAATTCATGGACCGGTTTTCCCGGTAATCCGTATTTGGC (site CCTAATGCTGC)” are within 0.2 log units of each other in “recombinant UMI read abundance (log10)” value: 0.0148 for the first, 0 for the second.

Going from “CAAGTCACATGGACCGGTTTTCCCGGTAATCCGTATTTGGG (site CAAGTTACTCC)” to “ATGGCATCATGGACCGGTTTTCCCGGTAATCCGTATTTGCG (site ATGGCATCTCG)”, the “recombinant UMI read abundance (log10)” value rises from 0.161 to 2.06.

First: TTAGTCGCATGGACCGGTTTTCCCGGTAATCCGTATTTGCG (site CTAGTCGCTCG)
Second: GGATCGTCATGGACCGGTTTTCCCGGTAATCCGTATTTGCC (site GGATCGTCTGG)
The “recombinant UMI read abundance (log10)” value of the first is lower: 0.00978 for the first, 2.05 for the second.

Going from “ATCCAAGCATGGACCGGTTTTCCCGGTAATCCGTATTTGAA (site ATCCAAGCTCT)” to “GTAGTCGCATGGACCGGTTTTCCCGGTAATCCGTATTTGCG (site GTAGTCGCTCC)”, the “recombinant UMI read abundance (log10)” value falls from 0.445 to 0.0196.

Going from “TGTGGAACATGGACCGGTTTTCCCGGTAATCCGTATTTGTT (site TGTGGAACTAA)” to “GACCGTCCATGGACCGGTTTTCCCGGTAATCCGTATTTGAT (site CACCGTCCTAT)”, the “recombinant UMI read abundance (log10)” value falls from 0.511 to 0.00334.

Going from “ATAGTCTCATGGACCGGTTTTCCCGGTAATCCGTATTTGAG (site ATAGTCTCTCT)” to “TTGCATACATGGACCGGTTTTCCCGGTAATCCGTATTTGGA (site TTGCATACTTC)”, the “recombinant UMI read abundance (log10)” value falls from 2 to 0.121.
